Holding throughout (assay type): biochemical
The target in one experiment is ERK2 (Homo sapiens, UniProt P28482). Nature of the experiment: […] kinase assay with recombinant active ERK2.
A further experiment has as its target p38α (Homo sapiens, UniProt Q16539). In words: […] kinase assay with recombinant active p38α.
In the next experiment the target is p110α (PI3-K) (Homo sapiens, UniProt P42336). In words: […] lipid kinase assay with recombinant active p110α.

The structures appear in SMILES notation.

Chain of p110α (PI3-K) (P42336 whole entry): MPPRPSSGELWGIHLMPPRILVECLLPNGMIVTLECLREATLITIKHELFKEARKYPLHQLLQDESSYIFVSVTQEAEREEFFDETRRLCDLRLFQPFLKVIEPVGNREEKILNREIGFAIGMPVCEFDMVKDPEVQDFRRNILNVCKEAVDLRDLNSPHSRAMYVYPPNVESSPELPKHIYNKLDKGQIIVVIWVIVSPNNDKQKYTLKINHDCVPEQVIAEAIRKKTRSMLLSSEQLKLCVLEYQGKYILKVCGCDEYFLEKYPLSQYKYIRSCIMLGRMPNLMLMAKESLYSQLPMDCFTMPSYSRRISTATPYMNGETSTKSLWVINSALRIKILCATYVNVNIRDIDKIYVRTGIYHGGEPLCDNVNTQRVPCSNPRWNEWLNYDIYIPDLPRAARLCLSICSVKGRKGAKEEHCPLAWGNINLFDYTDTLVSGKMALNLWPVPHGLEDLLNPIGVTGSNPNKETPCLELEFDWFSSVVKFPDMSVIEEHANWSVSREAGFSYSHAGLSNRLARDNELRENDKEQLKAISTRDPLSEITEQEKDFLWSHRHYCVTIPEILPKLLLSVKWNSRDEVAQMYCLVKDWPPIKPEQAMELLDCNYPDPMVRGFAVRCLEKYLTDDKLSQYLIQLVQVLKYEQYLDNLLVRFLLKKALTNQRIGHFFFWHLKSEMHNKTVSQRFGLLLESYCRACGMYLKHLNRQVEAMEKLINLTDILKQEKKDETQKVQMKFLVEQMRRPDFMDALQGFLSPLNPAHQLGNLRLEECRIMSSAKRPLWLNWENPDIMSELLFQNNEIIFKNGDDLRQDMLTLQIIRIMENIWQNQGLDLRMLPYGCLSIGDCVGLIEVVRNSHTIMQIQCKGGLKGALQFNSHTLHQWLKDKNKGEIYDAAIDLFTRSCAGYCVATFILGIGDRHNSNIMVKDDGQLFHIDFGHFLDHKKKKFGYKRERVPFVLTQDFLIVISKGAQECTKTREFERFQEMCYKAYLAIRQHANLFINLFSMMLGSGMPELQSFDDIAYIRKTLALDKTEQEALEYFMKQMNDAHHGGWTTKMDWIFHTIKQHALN
Chain of p38α (Q16539 2-360): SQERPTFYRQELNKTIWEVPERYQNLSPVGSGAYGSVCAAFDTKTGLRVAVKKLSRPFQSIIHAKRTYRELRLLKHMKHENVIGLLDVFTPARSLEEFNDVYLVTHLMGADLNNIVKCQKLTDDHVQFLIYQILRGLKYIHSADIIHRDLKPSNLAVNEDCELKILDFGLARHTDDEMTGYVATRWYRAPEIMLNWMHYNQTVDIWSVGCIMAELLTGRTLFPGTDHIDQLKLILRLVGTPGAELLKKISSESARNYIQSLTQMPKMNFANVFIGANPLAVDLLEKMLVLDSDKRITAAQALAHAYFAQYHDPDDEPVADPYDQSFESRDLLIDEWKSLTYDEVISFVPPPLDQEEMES
Chain of ERK2 (P28482 2-360): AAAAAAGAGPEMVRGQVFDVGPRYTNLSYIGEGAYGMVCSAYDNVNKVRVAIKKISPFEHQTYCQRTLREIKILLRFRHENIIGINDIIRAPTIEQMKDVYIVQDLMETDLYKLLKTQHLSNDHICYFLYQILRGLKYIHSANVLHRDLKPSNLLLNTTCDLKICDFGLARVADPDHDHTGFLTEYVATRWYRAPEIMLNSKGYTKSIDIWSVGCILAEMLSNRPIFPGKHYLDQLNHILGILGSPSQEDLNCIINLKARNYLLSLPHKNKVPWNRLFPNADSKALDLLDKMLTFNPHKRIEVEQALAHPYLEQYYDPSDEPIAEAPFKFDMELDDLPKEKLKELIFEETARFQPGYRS

Turning to `O=C1CCC(O)(CCOC(=O)/C=C/c2ccc(O)c(O)c2)CC1` [HOEC, (+)-2-(1-hydroxyl-4-oxocyclohexyl) ethyl caffeate], the figures for the IC50 on ERK2, at p38α and on p110α (PI3-K) were 20.9 µM, 12.9 µM and 10.3 µM, respectively.
